This data set relates to hsHAO1 mRNA. Description: Dose-response of hsHAO1 targeting GalNAc-siRNAs in primary human hepatocytes, gymnotic free uptake, bDNA assay. Format: cell-based. The settings on record: PHHs. On the procedure:
HepG2 cells were supplied by American Tissue Culture Collection (ATCC) (HB-8065, Lot #: 63176294) and cultured in ATCC-formulated Eagle's Minimum Essential Medium supplemented to contain 10% fetal calf serum (FCS). Primary human hepatocytes (PHHs) were sourced from Primacyt (Schwerin, Germany) (Lot #: CyHuf19009HEc). Cells are derived from a […] by explant technique. All cells used in this study were cultured at 37° C. in an atmosphere with 5% CO2 in a humidified incubator.
Dose response analysis in PHHs was done by direct incubation of cells in a gymnotic, free uptake setting starting with 1.5 μM highest final siRNA concentration, followed by 500 nM and from there on going serially down in twofold dilution steps.
Control wells were transfected into HepG2 cells or directly incubated with primary human hepatocytes at the highest test siRNA concentrations studied on the corresponding plate. All control siRNAs included in the different project phases next to mock treatment of cells are summarized and listed in Table 2. For each siRNA and control, at least four wells were transfected/directly incubated in parallel, and individual data points were collected from each well.
After 24 h of incubation with siRNA post-transfection, media was removed and HepG2 cells were lysed in Lysis Mixture (1 volume of lysis buffer plus 2 volumes of nuclease-free water) and then incubated at 53° C. for at least 45 minutes. In the case of PHHs, plating media was removed 5 h post treatment of cells followed by addition of 50 μl of complete maintenance medium per well. Media was exchanged in that way every 24 h up to a total incubation period of 72 h. At either 4 h or 72 h time point, cell culture supernatant was removed followed by addition of 200 μl of Lysis Mixture supplemented with 1:1000 v/v of Proteinase K.
The branched DNA (bDNA) assay was performed according to manufacturer's instructions. Luminescence was read using a 1420 Luminescence Counter (WALLAC VICTOR Light, Perkin Elmer, Rodgau-JMgesheim, Germany) following 30 minutes incubation in the presence of substrate in the dark. For each well, the on-target mRNA levels were normalized to the hsGAPDH mRNA levels. The activity of any siRNA was expressed as percent on-target mRNA concentration (normalized to hsGAPDH mRNA) in treated cells, relative to the mean on-target mRNA concentration (normalized to hsGAPDH mRNA) across control wells.
Following the identification of a suitable batch (CyHuf19009) of primary human hepatocytes (PHHs), a gymnotic, free uptake analysis was performed of hsHAO1 targeting GalNAc-siRNAs, listed in Table 1. The highest tested final siRNA concentration was 1.5 μM, followed by 500 nM, going down in eight two-fold serial dilution steps to the lowest final siRNA concentration of 1.95 nM. The experiments ended at 4 h and 72 h post direct incubation of PHH cells.

In the oligonucleotide strings, read from the 5' end, every base follows the letter of its sugar. An asterisk marks phosphorothioate; unmarked linkages are phosphodiester. Other units and linkages are bracketed, terminal groups are in braces. A string of capitals states the bases alone. {ET-GalNAc-T2CO} = code of the source, not defined here; {NH2C12} = code of the source, not defined here; {NHC6} = code of the source, not defined here; m = 2'-O-methyl; f = 2'-fluoro

As a reminder, the IC20 is the concentration at which the effect reaches the 20% level. Low readings indicate an effect from little substance, high ones a need for much substance. The term IC50 denotes the point on the concentration scale where inhibition reaches its midpoint. High values mean weaker potency in that assay, low ones greater potency in that assay. As to “ECX008: hsHAO1 GalNAc-siRNA, 3′-GalNAc T2a alternating, same sequences as ETX008, lower purity (sense fG*mA*fCmUfUmUfCmAfUmCfCmUfGmGfAmAfAmUfAmUfA-{NHC6}-{ET-GalNAc-T2CO}; antisense mU*fA*mUfAmUfUmUfCmCfAmGfGmAfUmGfAmAfAmGfUmC*fC*mA; further chemistry not given here)”, the “Max. Inhib.” value (4 h incubation) turned out to be 2.0%. In addition, for the setting “72 h incubation”, the IC20 was 0.0049 µM, the IC50 was 0.26 µM and the “Max. Inhib.” value is on record as 58.1%.

With “ETX002: hsHAO1 GalNAc-siRNA, 5′-GalNAc T2b inverted abasic; sense X91409, antisense X38483; linker + ligand as FIG. 21 (sense GACUUUCAUCCUGGAAAUAUA; antisense UAUAUUUCCAGGAUGAAAGUCCA; 5'-GalNAc, inverted abasic, 2'-F/OMe, PS; misc_feature 1..21 modified siRNA; misc_feature 1..23 modified siRNA)”, the “Max. Inhib.” value (4 h incubation) worked out at 7.2%. For the same substance, for the setting “72 h incubation”, the 20% effect level (IC20) was put at 0.0239 µM and the “Max. Inhib.” value is 44.3%.

Take “ETX004: hsHAO1 GalNAc-siRNA, 5′-GalNAc T2b alternating; sense X91412, antisense X91398; linker + ligand as FIG. 21 (sense {ET-GalNAc-T2CO}-{NH2C12}-fGmAfCmUfUmUfCmAfUmCfCmUfGmGfAmAfAmUfA*mU*fA; antisense mU*fA*mUfAmUfUmUfCmCfAmGfGmAfUmGfAmAfAmGfUmC*fC*mA)”: for the setting “4 h incubation”, the “Max. Inhib.” value is recorded as −2.3%. Further, under “72 h incubation”, it took 0.0028 µM to reach the 20% level (IC20) and the “Max. Inhib.” value turned out to be 35.5%.

These data come from patent publication US20230310486A1, “CONJUGATED OLIGONUCLEOTIDE COMPOUNDS, METHODS OF MAKING AND USES THEREOF” (E-Therapeutics PLC, priority 2021, published 2023).
